Experimental data as given in patent publication US20240158392A1 (Janssen Biotech, Inc., priority 2021, published 2024).

These molecules were tested against SIK2 (Homo sapiens, UniProt Q9H0K1) (assay: SIK2 Enzymatic Assay High Version 2 (High ATP)). Conditions: not given.
Assay type: biochemical
Summary of the method: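 At room temperature, enzyme (6 nM, 2× final) was preincubated with compound for 30 min, then 6 mM ATP and 400 μM HDAC5tide (both 2× final) were added for 2 h. ADP formed was measured by ADP-Glo Max (2 h reagent, 1 h detection) using luminescence.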

Chain of SIK2 (Q9H0K1 whole entry, species assumed): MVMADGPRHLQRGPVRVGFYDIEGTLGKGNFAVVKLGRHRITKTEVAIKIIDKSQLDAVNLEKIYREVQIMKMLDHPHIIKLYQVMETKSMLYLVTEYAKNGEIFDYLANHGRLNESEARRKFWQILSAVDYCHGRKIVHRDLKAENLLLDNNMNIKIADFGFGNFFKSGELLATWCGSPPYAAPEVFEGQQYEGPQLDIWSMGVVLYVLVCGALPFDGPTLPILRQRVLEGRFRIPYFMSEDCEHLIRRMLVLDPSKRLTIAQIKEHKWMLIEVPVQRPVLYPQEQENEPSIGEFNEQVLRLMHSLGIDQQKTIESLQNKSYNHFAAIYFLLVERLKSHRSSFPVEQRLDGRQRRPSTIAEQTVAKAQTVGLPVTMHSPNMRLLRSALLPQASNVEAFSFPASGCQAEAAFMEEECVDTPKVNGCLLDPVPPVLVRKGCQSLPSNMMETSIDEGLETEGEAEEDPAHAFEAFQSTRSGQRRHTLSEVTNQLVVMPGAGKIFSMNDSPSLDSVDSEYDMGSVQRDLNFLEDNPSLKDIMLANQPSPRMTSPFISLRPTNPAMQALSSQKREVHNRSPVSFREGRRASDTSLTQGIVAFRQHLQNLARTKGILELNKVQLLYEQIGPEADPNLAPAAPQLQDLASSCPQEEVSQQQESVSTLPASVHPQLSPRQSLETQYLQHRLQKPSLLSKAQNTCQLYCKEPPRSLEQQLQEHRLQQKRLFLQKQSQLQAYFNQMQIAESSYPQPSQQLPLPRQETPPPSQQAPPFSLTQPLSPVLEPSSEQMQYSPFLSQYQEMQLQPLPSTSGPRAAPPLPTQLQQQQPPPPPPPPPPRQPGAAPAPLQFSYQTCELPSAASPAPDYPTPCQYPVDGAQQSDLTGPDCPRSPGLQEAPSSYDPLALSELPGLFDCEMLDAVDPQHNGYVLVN

First: Cc1cc(-c2ccn3nc(NC(=O)C4CC4)cc3c2)c(O[C@@H]2CC[C@@H](O)C2)cn1 (stereo in doubt) [Example 569, (1*R, 3*R)—N-[5-[5-(3-hydroxycyclopentoxy)-2-methyl-4-pyridyl]pyrazolo[1,5-a]pyridin-2-yl]cyclopropanecarboxamide]
Second: Cc1cc(-c2ccn3nc(Nc4cnn(C(F)F)c4)cc3c2)c(O[C@H]2C[C@H]3COC[C@@H](C2)N3)cn1 [Example 117, 5-(5-(((1R,5S,7s)-3-oxa-9-azabicyclo[3.3.1]nonan-7-yl)oxy)-2-methylpyridin-4-yl)-N-(1-(difluoromethyl)-1H-pyrazol-4-yl)pyrazolo[1,5-a]pyridin-2-amine]
The IC50 of the first is 79-fold higher: 0.0717 µM for the first, 0.000904 µM for the second. The second is the more potent here.

In the case of Cc1cc(-c2ccn3nc(Nc4cnn(C(F)F)c4)cc3c2)c(O[C@H]2C[C@H]3COC[C@@H](C2)N3C)cn1 [Example 116, N-(1-(difluoromethyl)-1H-pyrazol-4-yl)-5-(2-methyl-5-(((1R,5S,7s)-9-methyl-3-oxa-9-azabicyclo[3.3.1]nonan-7-yl)oxy)pyridin-4-yl)pyrazolo[1,5-a]pyridin-2-amine], the IC50 is reported as less than 0.000847 µM.

Same assay, conditions: enzyme 6 nM, 6 mM ATP and 400 μM HDAC5tide (each 2× final concentration); 30 minutes pre-incubation, 2 hours; ADP-Glo Max luminescence; read-out: SIK2 high ATP IC50 (μM) (Test Example 2)

Cc1cc(-c2ccn3nc(Nc4cc(C)nc(C)n4)cc3c2)c(OC[C@H]2COC(C)(C)C2)cn1 (single isomer, unassigned) [Example 540, (*S)—N-(2,6-dimethylpyrimidin-4-yl)-5-[5-[(5,5-dimethyltetrahydrofuran-3-yl)methoxy]-2-methyl-4-pyridyl]pyrazolo[1,5-a]pyridin-2-amine] and Cc1cc(-c2ccn3nc(Nc4cc(C)nc(C)n4)cc3c2)c(O[C@H]2COC(C)(C)C2)cn1 (single isomer, unassigned) [Example 577, (*R)—N-(2,6-dimethylpyrimidin-4-yl)-5-[5-(5,5-dimethyltetrahydrofuran-3-yl)oxy-2-methyl-4-pyridyl]pyrazolo[1,5-a]pyridin-2-amine] are within 1.5-fold of each other in IC50: 0.0585 µM for the first, 0.0724 µM for the second.

Cc1cc(-c2ccn3nc(Nc4cc(C)nc(C)n4)cc3c2)c(OC[C@@H]2COC3(CCCC3)O2)cn1 (single isomer, unassigned) [Example 543, (*R)—N-(2,6-dimethylpyrimidin-4-yl)-5-[5-(6,9-dioxaspiro[4.4]nonan-8-ylmethoxy)-2-methyl-4-pyridyl]pyrazolo[1,5-a]pyridin-2-amine] and Cc1cc(-c2ccn3nc(Nc4cc(C)nc(C)n4)cc3c2)c(OC[C@H]2COC3(CCCC3)O2)cn1 (single isomer, unassigned) [Example 544, (*S)—N-(2,6-dimethylpyrimidin-4-yl)-5-[5-(6,9-dioxaspiro[4.4]nonan-8-ylmethoxy)-2-methyl-4-pyridyl]pyrazolo[1,5-a]pyridin-2-amine] are within 1.5-fold of each other in IC50: 0.016 µM for the first, 0.0147 µM for the second.

Going from Cc1cc(-c2ccn3nc(Nc4cc(C)nc(C)n4)cc3c2)c(OCC2CC(=O)N(C)C2)cn1 (single isomer, unassigned) [Example 547, (*R)-4-[[4-[2-[(2,6-dimethylpyrimidin-4-yl)amino]pyrazolo[1,5-a]pyridin-5-yl]-6-methyl-3-pyridyl]oxymethyl]-1-methyl-pyrrolidin-2-one] to Cc1cc(-c2ccn3nc(Nc4cc(C)nc(C)n4)cc3c2)c(OC[C@H](O)C2(C)CC2)cn1 (single isomer, unassigned) [Example 548, (*R)-2-[[4-[2-[(2,6-dimethylpyrimidin-4-yl)amino]pyrazolo[1,5-a]pyridin-5-yl]-6-methyl-3-pyridyl]oxy]-1-(1-methylcyclopropyl)ethanol], the IC50 rises from 0.014 µM to 0.0462 µM (3.3-fold). The first is the more potent here.

Compared with Cc1cc(-c2ccn3nc(Nc4cc(C)nc(C)n4)cc3c2)c(OC[C@@H](O)C2(C)CC2)cn1 (single isomer, unassigned) [Example 549, (*S)-2-[[4-[2-[(2,6-dimethylpyrimidin-4-yl)amino]pyrazolo[1,5-a]pyridin-5-yl]-6-methyl-3-pyridyl]oxy]-1-(1-methylcyclopropyl)ethanol], Cc1cc(-c2ccn3nc(Nc4cc(C)nc(C)n4)cc3c2)c(OC[C@]2(O)CCCOC2)cn1 (single isomer, unassigned) [Example 608, (*S)-3-[[4-[2-[(2,6-dimethylpyrimidin-4-yl)amino]pyrazolo[1,5-a]pyridin-5-yl]-6-methyl-3-pyridyl]oxymethyl]tetrahydropyran-3-ol] is 2.2-fold higher in IC50: 0.0416 µM for the first, 0.0922 µM for the second. The first is the more potent here.

Cc1cc(-c2ccn3nc(Nc4cc(C)nc(C)n4)cc3c2)c(O[C@H]2CCOC(C)(C)C2)cn1 (single isomer, unassigned) [Example 578, (*S)—N-(2,6-dimethylpyrimidin-4-yl)-5-[5-(2,2-dimethyltetrahydropyran-4-yl)oxy-2-methyl-4-pyridyl]pyrazolo[1,5-a]pyridin-2-amine] and Cc1cc(-c2ccn3nc(Nc4cc(C)nc(C)n4)cc3c2)c(O[C@H]2CCS(=O)(=O)NC2)cn1 (single isomer, unassigned) [Example 610, (*S)—N-(2,6-dimethylpyrimidin-4-yl)-5-[5-(1,1-dioxothiazinan-4-yl)oxy-2-methyl-4-pyridyl]pyrazolo[1,5-a]pyridin-2-amine] are within 1.5-fold of each other in IC50: 0.0998 µM for the first, 0.0829 µM for the second.

First: Cc1cc(-c2ccn3nc(NC(=O)C4CC4)cc3c2)c(O[C@@H]2CCC[C@H](O)C2)cn1 (single isomer, unassigned) [Example 602, (1*R, 3*S)—N-[5-[5-(3-hydroxycyclohexoxy)-2-methyl-4-pyridyl]pyrazolo[1,5-a]pyridin-2-yl]cyclopropanecarboxamide]
Second: Cc1cc(-c2ccn3nc(NC(=O)C4CC4)cc3c2)c(OCC(C)(O)C2CC2)cn1 (single isomer, unassigned) [Example 603, (*S)—N-[5-[5-(2-cyclopropyl-2-hydroxy-propoxy)-2-methyl-4-pyridyl]pyrazolo[1,5-a]pyridin-2-yl]cyclopropanecarboxamide]
The IC50 of the first is 1.8-fold lower: 0.113 µM for the first, 0.202 µM for the second.

Going from Cc1cc(-c2ccn3nc(NC(=O)C4CC4)cc3c2)c(OC[C@@]2(C)CCN2C)cn1 (single isomer, unassigned) [Example 604, (*R)—N-[5-[5-[(1,2-dimethylazetidin-2-yl)methoxy]-2-methyl-4-pyridyl]pyrazolo[1,5-a]pyridin-2-yl]cyclopropanecarboxamide] to C[C@@H](C#N)Oc1cc(-c2ccn3nc(NC(=O)C4CC4)cc3c2)c(OCC(C)(C)C#N)cn1 (single isomer, unassigned) [Example 726, (*S)—N-[5-[2-(1-cyanoethoxy)-5-(2-cyano-2-methyl-propoxy)-4-pyridyl]pyrazolo[1,5-a]pyridin-2-yl]cyclopropanecarboxamide], the IC50 falls from 0.203 µM to 0.00251 µM (81-fold).

Going from Cc1cc(-c2ccn3nc(Nc4cc(C)nc(C)n4)cc3c2)c(OC[C@H]2CC3(CCC3)CO2)cn1 (single isomer, unassigned) [Example 607, (*R)—N-(2,6-dimethylpyrimidin-4-yl)-5-[2-methyl-5-(7-oxaspiro[3.4]octan-6-ylmethoxy)-4-pyridyl]pyrazolo[1,5-a]pyridin-2-amine] to Cc1cc(Nc2cc3cc(-c4cc(OC(F)F)ncc4OC[C@@H]4CC(=O)NC4(C)C)ccn3n2)nc(C)n1 (single isomer, unassigned) [Example 731], the IC50 falls from 0.1 µM to 0.00997 µM (10-fold). The second is the more potent here.

Cc1cc(Nc2cc3cc(-c4cc(O[C@H](C)C#N)ncc4OCC(C)(C)C#N)ccn3n2)nc(C)n1 (single isomer, unassigned) [Example 680, (*R)-3-[[6-(1-cyanoethoxy)-4-[2-[(2,6-dimethylpyrimidin-4-yl)amino]pyrazolo[1,5-a]pyridin-5-yl]-3-pyridyl]oxy]-2,2-dimethyl-propanenitrile] and Cc1cc(Nc2cc3cc(-c4cc(O[C@@H](C)C#N)ncc4OCC(C)(C)C#N)ccn3n2)nc(C)n1 (single isomer, unassigned) [Example 681, (*S)-3-[[6-(1-cyanoethoxy)-4-[2-[(2,6-dimethylpyrimidin-4-yl)amino]pyrazolo[1,5-a]pyridin-5-yl]-3-pyridyl]oxy]-2,2-dimethyl-propanenitrile] are within 1.5-fold of each other in IC50: 0.0317 µM for the first, 0.0347 µM for the second.

First: Cc1cc(Nc2cc3cc(-c4cc(OC(F)F)ncc4OC[C@H]4CC(=O)NC4(C)C)ccn3n2)nc(C)n1 (single isomer, unassigned) [Example 732, (*S)-4-[[6-(difluoromethoxy)-4-[2-[(2,6-dimethylpyrimidin-4-yl)amino]pyrazolo[1,5-a]pyridin-5-yl]-3-pyridyl]oxymethyl]-5,5-dimethyl-pyrrolidin-2-one]
Second: Cc1cc(Nc2cc3cc(-c4cc(OC(F)F)ncc4OC[C@@H]4CC(=O)NC4(C)C)ccn3n2)nc(C)n1 (single isomer, unassigned) [Example 738, (*R)-4-[[6-(difluoromethoxy)-4-[2-[(2,6-dimethylpyrimidin-4-yl)amino]pyrazolo[1,5-a]pyridin-5-yl]-3-pyridyl]oxymethyl]-5,5-dimethyl-pyrrolidin-2-one]
The IC50 of the first is 1.9-fold lower: 0.00164 µM for the first, 0.00304 µM for the second. The first is the more potent here.

Compared with Cc1cc(Nc2cc3cc(-c4cc(OC(F)F)ncc4OC[C@H]4CC(=O)NC4(C)C)ccn3n2)nc(C)n1 (single isomer, unassigned) [Example 739, (*S)-4-[[6-(difluoromethoxy)-4-[2-[(2,6-dimethylpyrimidin-4-yl)amino]pyrazolo[1,5-a]pyridin-5-yl]-3-pyridyl]oxymethyl]-5,5-dimethyl-pyrrolidin-2-one], Cc1cc(Nc2cc3cc(-c4cc(OC(F)F)ncc4OCC(C)(N)C(F)(F)F)ccn3n2)nc(C)n1 (single isomer, unassigned) [Example 755, (*R)-5-[5-(2-amino-3,3,3-trifluoro-2-methyl-propoxy)-2-(difluoromethoxy)-4-pyridyl]-N-(2,6-dimethylpyrimidin-4-yl)pyrazolo[1,5-a]pyridin-2-amine] is 1.8-fold higher in IC50: 0.00119 µM for the first, 0.00215 µM for the second. The first is the more potent here.

For Cc1cc(Nc2cc3cc(-c4cc(OC(F)F)ncc4OCC(C)(N)C(F)(F)F)ccn3n2)nc(C)n1 (single isomer, unassigned) [Example 756, (*S)-5-[5-(2-amino-3,3,3-trifluoro-2-methyl-propoxy)-2-(difluoromethoxy)-4-pyridyl]-N-(2,6-dimethylpyrimidin-4-yl)pyrazolo[1,5-a]pyridin-2-amine], the IC50 was 0.275 µM.
